Values of other authors in patent US8329872B2, “Drug monitoring assay” (Novartis AG, priority 2007, dated 2012).

Target: classical and novel protein kinase C (PKC) isoforms

ki values: in the nM range
SMILES: CN1CCN(c2nc(C3=C(c4c[nH]c5ccccc45)C(=O)NC3=O)c3ccccc3n2)CC1 [AEB071]
